These results are taken from patent US9550792B2, “Polycyclic substituted pyrazole kinase activity inhibitors and use thereof” (priority 2013, dated 2017).

Values after ≈ are worked out from the molar mass of the structure shown. Where two headings read alike, the source gives them in different places.

The subject of one series is Cryptococcus neoformans. The series can be described thus: Antifungal activity, modified broth microdilution. Type of series: cell-based. The following applies: Cryptococcus neoformans; 48 hours at 35, approximately 50% reduction of growth. The protocol: (§1) The test microorganisms are maintained on Sabourahd Dextrose Agar slant at 4[…]. Singlet suspension of each microorganism is prepared by growing the yeast overnight at 27[…] on a rotating drum in yeast-nitrogen base broth (YNB) with amino acids (Difco, Detroit, Mich.), (pH 7.0) and 0.05 morpholine propanesulphonic acid (MOPS). […] The activity of the test compound is determined using a modified broth microdilution technique. […] Well 12 serves as a growth control. […] Inoculated plate is incubated for 48 hours at 35 °C. […] Minimal Cytolytic Concentration (MCC) is determined by subculturing all wells from the 96-well plate onto a Sabourahd Dextrose Agar (SDA) plate, incubating for 1-2 days at 35 °C, and then checking viability.
In general terms: Dilution methods test growth across graded concentrations, often in twofold steps.

The subject of a further series is Candida parapsilosis. The series can be described thus: Antifungal activity, modified broth microdilution. The following applies: Lodderomyces parapsilosis; 48 hours at 35, approximately 50% reduction of growth. Type of series: cell-based. As for the experimental part:
as §1

The test system of another series is Candida tropicalis. The series can be described thus: Antifungal activity, modified broth microdilution. Format: cell-based. The following applies: Candida tropicalis; 48 hours at 35, approximately 50% reduction of growth. As for the experimental part:
as §1

In series [1] the test system is Candida albicans - ATCC 36082. The series can be described thus: Antifungal activity, modified broth microdilution. Format: cell-based. The following applies: Candida albicans, ATCC36082; 48 hours at 35, approximately 50% reduction of growth. The protocol: as §1
A short description of series [2]: Measurement of lipid-water partition coefficient (Log P). The following applies: n-octanol/distilled water, 25° C. Format: physicochemical. As for the experimental part:
n-octanol and distilled water were allowed to saturate each other for 24 h. An amount of the sample was weighed accurately into a 50 mL volumetric flask and metered with n-octanol that was saturated with water (the sample was dissolved completely). A 10 mL solution of the sample in n-octanol was placed in a 50 mL triangular flask, to which was added 10 mL distilled water which was saturated with n-octanol. The mixture was equilibrated (125 rpm, 72 h) at 25° C. with a constant temperature vibrator. The lipid-water partition coefficient was calculated by the concentrations of the drug in the n-octanol stock solution before the experiment and in the n-octanol layer after experiment.

Series [3] in a line: Measurement of water solubility. Format: physicochemical. The following applies: thermodynamic from solid, distilled water, 25° C. The protocol:
An excess quantity of sample was added into a 50 mL triangular flask, to which 10 mL distilled water was added, and then the flask was vibrated in a Constant Temperature Vibrator at 25° C. for 72 h. The solution was centrifuged at 10000 r/min for 15 min and then the supernatant was filtrated with […] microfiltration membrane to remove undissolved drug. 2 mL filtrate was metered with methanol to 10 ml. The content of drug was determined with 20 μL sample injection.

Series [4] has as its system liver cancer cell line 7721. The series can be described thus: Anti-tumor activity in vitro, MTT method. Format: cell-based. The following applies: 48 h, read-out: 7721 (IC50/μM). Background: Tetrazolium dyes change colour on reduction, which living cells bring about.
A further series deals with CDK9/cyclin K (Homo sapiens, UniProt P50750). The series can be described thus: Kinase IC50, 33P labeled isotope method. The following applies: 20 μM ATP. Type of series: biochemical.
Chain of CDK9/cyclin K (P50750 19-315 limits assumed): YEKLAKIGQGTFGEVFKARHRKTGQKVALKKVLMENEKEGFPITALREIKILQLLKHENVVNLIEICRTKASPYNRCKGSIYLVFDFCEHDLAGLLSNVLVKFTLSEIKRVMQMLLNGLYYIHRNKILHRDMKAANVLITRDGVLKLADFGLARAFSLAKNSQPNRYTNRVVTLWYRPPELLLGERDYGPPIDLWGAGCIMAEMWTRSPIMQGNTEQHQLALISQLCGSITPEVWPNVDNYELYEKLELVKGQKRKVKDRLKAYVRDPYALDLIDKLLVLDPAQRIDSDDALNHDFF
Chain of CDK9/cyclin K (O75909 whole entry partner): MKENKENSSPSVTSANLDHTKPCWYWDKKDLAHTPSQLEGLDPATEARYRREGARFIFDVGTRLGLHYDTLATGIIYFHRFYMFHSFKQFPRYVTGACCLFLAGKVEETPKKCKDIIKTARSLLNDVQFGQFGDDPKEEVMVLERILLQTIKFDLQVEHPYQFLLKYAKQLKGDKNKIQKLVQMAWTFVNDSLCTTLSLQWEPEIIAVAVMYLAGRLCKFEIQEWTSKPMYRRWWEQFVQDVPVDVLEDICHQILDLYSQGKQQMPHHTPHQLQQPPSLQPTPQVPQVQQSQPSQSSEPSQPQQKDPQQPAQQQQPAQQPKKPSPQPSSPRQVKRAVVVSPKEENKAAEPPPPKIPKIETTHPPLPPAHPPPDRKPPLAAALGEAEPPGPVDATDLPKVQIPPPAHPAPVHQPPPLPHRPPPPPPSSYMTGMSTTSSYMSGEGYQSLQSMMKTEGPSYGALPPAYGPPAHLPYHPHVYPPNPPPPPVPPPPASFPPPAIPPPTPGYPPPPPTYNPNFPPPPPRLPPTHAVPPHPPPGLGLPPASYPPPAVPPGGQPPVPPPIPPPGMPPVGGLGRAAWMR
The subject of the next series is Phytophthora infestans. Type of series: in vivo.
For a further series, the target named is CDK6/cyclin D1 (Homo sapiens, UniProt Q00534). The series can be described thus: Kinase IC50, 33P labeled isotope method. Format: biochemical.
Chain of CDK6/cyclin D1 (Q00534 13-300 limits assumed): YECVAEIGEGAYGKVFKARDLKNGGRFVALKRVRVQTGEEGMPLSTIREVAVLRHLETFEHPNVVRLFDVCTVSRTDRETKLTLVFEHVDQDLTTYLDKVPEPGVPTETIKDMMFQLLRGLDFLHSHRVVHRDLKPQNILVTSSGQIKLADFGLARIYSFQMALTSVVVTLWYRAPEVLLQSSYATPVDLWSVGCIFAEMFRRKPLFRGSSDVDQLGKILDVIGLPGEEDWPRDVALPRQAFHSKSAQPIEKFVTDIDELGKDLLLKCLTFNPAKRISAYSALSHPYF
Chain of CDK6/cyclin D1 (P24385 whole entry partner): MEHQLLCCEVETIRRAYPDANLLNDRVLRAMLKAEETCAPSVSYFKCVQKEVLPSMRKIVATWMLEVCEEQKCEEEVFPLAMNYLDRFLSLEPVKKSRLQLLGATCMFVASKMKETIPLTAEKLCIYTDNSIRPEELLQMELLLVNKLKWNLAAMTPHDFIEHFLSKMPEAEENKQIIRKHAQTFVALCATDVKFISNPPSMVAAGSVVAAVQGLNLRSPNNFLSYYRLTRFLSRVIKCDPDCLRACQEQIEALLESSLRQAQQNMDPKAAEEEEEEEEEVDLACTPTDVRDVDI
For another series, the target named is FLT4/VEGFR3 (Homo sapiens, UniProt P35916). In words: Kinase IC50, 33P labeled isotope method. Type of series: biochemical.
Chain of FLT4/VEGFR3 (P35916 845-1173 limits assumed): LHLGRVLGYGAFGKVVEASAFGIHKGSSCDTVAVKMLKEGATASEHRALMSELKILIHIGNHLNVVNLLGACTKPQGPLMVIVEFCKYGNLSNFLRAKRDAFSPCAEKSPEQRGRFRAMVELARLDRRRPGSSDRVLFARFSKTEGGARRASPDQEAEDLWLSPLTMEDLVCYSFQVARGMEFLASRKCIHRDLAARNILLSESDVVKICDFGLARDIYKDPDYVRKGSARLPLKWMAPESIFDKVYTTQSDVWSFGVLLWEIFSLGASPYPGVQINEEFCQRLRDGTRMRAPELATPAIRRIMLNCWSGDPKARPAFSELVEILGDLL
In another series the target is GSK3b (Homo sapiens, UniProt P49841). The series can be described thus: Kinase IC50, 33P labeled isotope method. The following applies: 20 μM ATP. Format: biochemical.
Chain of GSK3b (P49841 56-340 limits assumed): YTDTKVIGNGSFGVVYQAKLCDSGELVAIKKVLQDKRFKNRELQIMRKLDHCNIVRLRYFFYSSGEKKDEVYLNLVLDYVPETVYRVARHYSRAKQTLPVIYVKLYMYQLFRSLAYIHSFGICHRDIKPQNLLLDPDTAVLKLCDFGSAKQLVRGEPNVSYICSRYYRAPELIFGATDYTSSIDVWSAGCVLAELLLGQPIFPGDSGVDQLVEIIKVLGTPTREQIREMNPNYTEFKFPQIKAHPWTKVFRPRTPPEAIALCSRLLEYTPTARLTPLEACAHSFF
The target in another series is T1, FLT3 (Homo sapiens, UniProt P36888).
T1 sequence (P36888 610-943 limits assumed): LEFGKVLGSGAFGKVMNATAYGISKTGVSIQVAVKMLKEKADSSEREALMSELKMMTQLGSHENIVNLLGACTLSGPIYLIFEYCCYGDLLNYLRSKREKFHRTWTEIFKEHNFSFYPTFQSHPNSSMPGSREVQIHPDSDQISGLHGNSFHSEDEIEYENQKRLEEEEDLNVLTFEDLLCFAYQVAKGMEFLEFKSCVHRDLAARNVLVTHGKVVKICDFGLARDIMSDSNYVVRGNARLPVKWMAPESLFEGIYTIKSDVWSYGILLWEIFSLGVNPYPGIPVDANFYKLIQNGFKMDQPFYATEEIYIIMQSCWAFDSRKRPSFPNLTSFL
The series can be described thus: Kinase IC50, 33P labeled isotope method. Format: biochemical. The following applies: 20 μM ATP.

The MIC is the lowest concentration that inhibits growth of the organism. The low end stands for greater potency, the high end for weaker potency. As usually defined, the logP is a log measure of how a compound divides between an organic and an aqueous phase. A high value points to higher lipophilicity. By solubility is commonly meant how much of the substance goes into solution per volume. High values mean much dissolved substance, low ones little dissolved substance. In the case of `CN1CCN(Cc2ccc(NC(=O)c3n[nH]cc3Nc3ncnc4sccc34)cc2)CC1` [Compound I-1, 4-(4-thieno[2,3-d]pyrimidinylamino)-N-(4-((4-methyl-1-piperazinyl)methyl)phenyl)-1H-3-pyrazole carboxamide], the MIC was determined as 3.64 µg/mL (≈ 8.11 µM) in the series on Cryptococcus neoformans, 2.08 µg/mL (≈ 4.64 µM) with Candida parapsilosis, 2.3 µg/mL (≈ 5.13 µM) against Candida tropicalis and 2.9 µg/mL (≈ 6.47 µM) in series [1]. For the same compound, the logP at 72 h in [2] worked out at 1.27. Moreover, in series [3], the solubility at 72 h was less than 0.1 µg/mL. The IC50 is 6.23 µM in [4] and 39 nM at CDK9/cyclin K. The “Severity of tomato leaf blight” value with Phytophthora infestans (0.0001 (unit not given)) is on record as “+++ (40-60% blight)”; in the series with Phytophthora infestans (0.001 (unit not given)) it was “++ (15-40% blight)”; in the series with Phytophthora infestans (0.01 (unit not given)), “+ (0-15% blight)”; with Phytophthora infestans (0.1 (unit not given)) it was “−”.
As a reminder, the melting point is the temperature of the solid-liquid transition. The compound `O=C(Nc1ccc(CN2CCOCC2)cc1)c1n[nH]cc1Nc1ncnc2sccc12` [Compound I-2, 4-(4-thieno[2,3-d]pyrimidinylamino)-N-(4-((4-morpholinyl)methyl)phenyl)-1H-3-pyrazolecarboxamide] registered a melting point of 262 to 265 °C. For the same compound, the logP at 72 h in [2] was found to be 1.28. Also, the solubility at 72 h in [3] is less than 0.08 µg/mL.
Compound `Cc1cc2c(Nc3c[nH]nc3C(=O)Nc3ccc(CN4CCN(C)CC4)cc3)ncnc2s1` [Compound I-3, 4-(4-(6-methylthieno[2,3-d]pyrimidinyl)amino)-N-(4-((4-methyl-1-piperazinyl)methyl)phenyl)-1H-3-pyrazolecarboxamide] came in with a melting point of 235 to 238 °C. Further, the IC50 at CDK6/cyclin D1 (20 μM ATP, read-out: IC50* CDK6/cyclin D1) came to 4 nM. For the same compound, the IC50 on FLT4/VEGFR3 (20 μM ATP, read-out: IC50* FLT4/VEGFR3) amounted to 4 nM. Further, on GSK3b, the IC50 is 1 nM. The IC50 on CDK9/cyclin K worked out at 37 nM.
Take `CN1CCN(Cc2ccc(NC(=O)c3n[nH]cc3Nc3ncnc4[nH]ccc34)cc2)CC1` [Compound I-11, 4-(4-(7H-pyrrolo[2,3-d]pyrimidinyl)amino)-N-(4-((4-methyl-1-piperazinyl)methyl)phenyl)-1H-3-pyrazolecarboxamide]: the IC50 at CDK6/cyclin D1 was determined as 4 nM; at FLT4/VEGFR3 it was 4 nM; against FLT3, 1 nM; against GSK3b it was 1 nM. Besides, the MIC turned out to be 15 µg/mL (≈ 34.8 µM) in the series on Cryptococcus neoformans, 11.2 µg/mL (≈ 26 µM) in the series on Candida parapsilosis, 7.72 µg/mL (≈ 17.9 µM) against Candida tropicalis and 7.45 µg/mL (≈ 17.3 µM) in [1]. The “Severity of tomato leaf blight” value with Phytophthora infestans (0.0001 (unit not given)) is “+++ (40-60% blight)”; with Phytophthora infestans (0.001 (unit not given)) it was “++ (15-40% blight)”; with Phytophthora infestans (0.01 (unit not given)) it was “+ (0-15% blight)”; in the series on Phytophthora infestans (0.1 (unit not given)) it was “−”.
As to `Cc1cc2c(Nc3c[nH]nc3C(=O)Nc3ccc(CN4CCN(C)CC4)cc3)ncnc2[nH]1` [Compound I-13, 4-(4-(6-methyl-7H-pyrrolo[2,3-d]pyrimidinyl)amino)-N-(4-((4-methyl-1-piperazinyl)methyl)phenyl)-1H-3-pyrazolecarboxamide], the melting point lay within 268 to 270 °C. This compound also returned an MIC in the series on Cryptococcus neoformans of 4.23 µg/mL (≈ 9.49 µM). Inhibition of growth against Candida parapsilosis (MIC) required 0.98 µg/mL (≈ 2.2 µM). Also, the MIC against Candida tropicalis stood at 3.24 µg/mL (≈ 7.27 µM). The compound also displayed an MIC in [1] of 5.85 µg/mL (≈ 13.1 µM). In addition, at FLT3, the IC50 came to 1 nM. The IC50 at GSK3b was 1 nM. This compound had an IC50 against CDK9/cyclin K of 43 nM. In the series with Phytophthora infestans (0.0001 (unit not given)), the “Severity of tomato leaf blight” value is “++ (15-40% blight)”. Besides, the “Severity of tomato leaf blight” value in the series on Phytophthora infestans (0.001 (unit not given)) is recorded as “++ (15-40% blight)”. Moreover, the “Severity of tomato leaf blight” value in the series with Phytophthora infestans (0.01 (unit not given)) is on record as “+ (0-15% blight)”. Besides, the “Severity of tomato leaf blight” value with Phytophthora infestans (0.1 (unit not given)) was “−”.
The compound `CN1CCN(Cc2ccc(NC(=O)c3n[nH]cc3Nc3ncnc4occc34)cc2)CC1` [Compound I-21, 4-(4-furo[2,3-d]pyrimidinylamino)-N-(4-((4-methyl-1-piperazinyl)methyl)phenyl)-1H-3-pyrazolecarboxamide] returned a melting point of 255 to 257 °C. This compound also came in with a minimal inhibitory concentration (MIC) in the series on Cryptococcus neoformans of 13.8 µg/mL (≈ 32 µM). In the series with Candida parapsilosis, 9.76 µg/mL (≈ 22.6 µM) was the least that counted as inhibitory (MIC). The compound also yielded an MIC with Candida tropicalis of 8.29 µg/mL (≈ 19.2 µM). The same compound registered an MIC in series [1] of 7.82 µg/mL (≈ 18.1 µM). The IC50 at FLT3 is 1 nM. For the same compound, the IC50 in series [4] was determined as 17.4 µM. The compound also had an IC50 against GSK3b of 1 nM. Further, the IC50 against CDK9/cyclin K amounted to 45 nM. In addition, the “Severity of tomato leaf blight” value in the series on Phytophthora infestans (0.0001 (unit not given)) is “++++ (>60% blight)”. The “Severity of tomato leaf blight” value in the series on Phytophthora infestans (0.001 (unit not given)) was “++ (15-40% blight)”. Also, the “Severity of tomato leaf blight” value with Phytophthora infestans (0.01 (unit not given)) is recorded as “+ (0-15% blight)”. In the series on Phytophthora infestans (0.1 (unit not given)), the “Severity of tomato leaf blight” value is recorded as “−”.
`Cc1cc2c(Nc3c[nH]nc3C(=O)Nc3ccc(CN4CCN(C)CC4)cc3)nccc2s1` [Compound I-27, 4-(4-(2-methylthieno[3,2-c]pyridyl)amino)-N-(4-((4-methyl-1-piperazinyl)methyl)phenyl)-1H-3-pyrazolecarboxamide] registered a melting point of 267 to 269 °C. The same compound had an MIC against Cryptococcus neoformans of 4.06 µg/mL (≈ 8.8 µM). Further, in the series on Candida parapsilosis, the MIC amounted to 1.02 µg/mL (≈ 2.21 µM). The same compound came in with an MIC against Candida tropicalis of 3.57 µg/mL (≈ 7.73 µM). For the same compound, inhibition of growth in [1] (MIC) required 5.48 µg/mL (≈ 11.9 µM). Further, at FLT3, the IC50 stood at 1 nM. In addition, the IC50 against GSK3b was 1 nM. Further, the IC50 against CDK9/cyclin K stood at 43 nM. Besides, in the series on Phytophthora infestans (0.0001 (unit not given)), the “Severity of tomato leaf blight” value is recorded as “++++ (>60% blight)”. The “Severity of tomato leaf blight” value in the series on Phytophthora infestans (0.001 (unit not given)) is recorded as “++ (15-40% blight)”. The “Severity of tomato leaf blight” value in the series with Phytophthora infestans (0.01 (unit not given)) is recorded as “+ (0-15% blight)”. Moreover, the “Severity of tomato leaf blight” value in the series on Phytophthora infestans (0.1 (unit not given)) is reported as “−”.
